Like-named read-outs stand apart in the source and are kept apart here.
Legend:
[1] = Pharmacokinetic investigation, oral bioavailability in mice; type: in vivo; settings: plasma, Mouse, read-out: Bioavailability following oral administration
Method: (§1) Pharmacokinetic data were determined after administering various substances i.v. or p.o. as solutions to mice, rats and dogs. For this, blood samples were collected up to 24 hours after administration. The concentrations of the unaltered substance were determined by bioanalytical methods (HPLC or HPLC-MS) in the plasma samples which were obtained from the blood samples. Pharmacokinetic parameters were subsequently ascertained from the plasma concentration time courses which had been obtained in this way. The following Table 2 gives the bioavailability in the different species.

[2] = Pharmacokinetic investigation, oral bioavailability in rats; type: in vivo; settings: plasma, Rat, at 3 mg/kg p.o., read-out: Bioavailability following oral administration
Method: as §1

heart = experiment: Cardiovascular effect: heart rate of isolated rat heart in Langerdorff apparatus; settings: isolated perfused rat heart
Method: After the thorax has been opened, the heart is rapidly removed from anaesthetized rats and introduced into a conventional Langerdorff apparatus. The coronary arteries are perfused at constant volume (10 ml/min), and the resulting perfusion pressure is recorded by way of an appropriate pressure sensor. In this set-up, a decrease in the perfusion pressure corresponds to a relaxation of the coronary arteries. At the same time, the pressure which the heart develops during each contraction is measured by way of a balloon, which has been introduced into the left ventricle, and a second pressure sensor. The frequency of the heart, which is beating in isolation, is calculated from the number of contractions per time unit.
In this experimental set-up, the following values were obtained for the reduction in heart rate (the stated percentage refers to the reduction of the heart rate in per cent at the concentration in question): […]

adenosine A2a receptor = target: T1, adenosine A2a receptor (Homo sapiens, UniProt P29274); experiment: Adenosine agonism indirectly by gene expression (luciferase, cAMP-dependent promoter) in transfected CHO cells, A2a; type: cell-based; settings: read-out: Stimulation of adenosine A2a receptor (% of the maximum stimulation achieved by NECA)
T1 construct: expressed in transfected cells; host or cells: CHO (Chinese Hamster Ovary)
T1 sequence (P29274 whole entry): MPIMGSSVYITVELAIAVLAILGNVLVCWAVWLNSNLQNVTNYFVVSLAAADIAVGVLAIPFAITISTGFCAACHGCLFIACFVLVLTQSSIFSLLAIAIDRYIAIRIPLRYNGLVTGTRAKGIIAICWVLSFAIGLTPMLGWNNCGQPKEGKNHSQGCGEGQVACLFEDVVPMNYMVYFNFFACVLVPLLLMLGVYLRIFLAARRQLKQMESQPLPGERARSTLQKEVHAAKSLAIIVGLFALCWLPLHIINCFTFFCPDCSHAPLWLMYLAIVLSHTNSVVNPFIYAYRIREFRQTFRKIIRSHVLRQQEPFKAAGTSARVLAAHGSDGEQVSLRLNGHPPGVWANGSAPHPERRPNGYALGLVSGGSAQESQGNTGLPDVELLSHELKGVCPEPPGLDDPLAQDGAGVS
Description: (§2) Cells of the CHO (Chinese Hamster Ovary) permanent cell line are transfected stably with the cDNA for the adenosine receptor subtypes A1, A2a and A2b. The adenosine A1 receptors are coupled to the adenylate cyclase by way of Gi proteins, while the adenosine A2a and A2b receptors are coupled by way of Gs proteins. In correspondence with this, the formation of cAMP in the cell is inhibited or stimulated, respectively. After that, expression of the luciferase is modulated by way of a cAMP-dependent promoter. The luciferase test is optimized, with the aim of high sensitivity and reproducibility, low variance and good suitability for implementation on a robot system, by varying several test parameters, such as cell density, duration of the growth phase and the test incubation, forskolin concentration and medium composition. The following test protocol is used for pharmacologically characterizing cells and for the robot-assisted substance test screening.
(§3) The stock cultures are grown, at 37° C. and under 5% CO2, in DMEM/F12 medium containing 10% FCS (foetal calf serum) and in each case split 1:10 after 2–3 days. The test cultures are seeded in 384-well plates at the rate of from 1 000 to 3 000 cells per well and grown at 37° C. for approx. 48 hours. The medium is then replaced with a physiological sodium chloride solution (130 mM sodium chloride, 5 mM potassium chloride, 2 mM calcium chloride, 20 mM HEPES, 1 mM magnesium chloride 6H2O, 5 mM NaHCO3, pH 7.4). The substances, which are dissolved in DMSO, are diluted 1:10 three times with this physiological sodium chloride solution and pipetted into the test cultures (maximum final concentration of DMSO in the test mixture: 0.5%). In this way, final substance concentrations of, for example, from 5 μM to 5 nM are obtained. 10 minutes later, forskolin is added to the A1 cells and all the cultures are subsequently incubated at 37° C. for four hours. After that, 35 μl of a solution which is composed of 50% lysis reagent (30 mM disodium hydrogenphosphate, 10% glycerol, 3% TritonX100, 25 mM TrisHCl, 2 mM dithiothreitol (DTT), pH 7.8) and 50% luciferase substrate solution (2.5 mM ATP, 0.5 mM luciferin, 0.1 mM coenzyme A, 10 mM tricine, 1.35 mM magnesium sulphate, 15 mM DTT, pH 7.8) are added to the test cultures, the plates are shaken for approx. 1 minute and the luciferase activity is measured using a camera system.
(§4) The table gives the % values of the corresponding reference stimulus. The measured values for the A2a and A2b receptors are values in per cent of the maximum stimulation achieved by NECA; the measured values for the A1 receptor are values in per cent following direct prestimulation of the adenylate cyclase with 1 μmolar forskolin (corresponds to the 100% value).

adenosine A1 receptor = target: T2, adenosine A1 receptor (Homo sapiens, UniProt P30542); experiment: Adenosine agonism indirectly by gene expression (luciferase, cAMP-dependent promoter) in transfected CHO cells, A1; type: cell-based; settings: 1 μmolar forskolin = 100%, agonists give less than 100%
T2 construct: expressed in transfected cells; host or cells: CHO (Chinese Hamster Ovary)
T2 sequence (P30542 1-326): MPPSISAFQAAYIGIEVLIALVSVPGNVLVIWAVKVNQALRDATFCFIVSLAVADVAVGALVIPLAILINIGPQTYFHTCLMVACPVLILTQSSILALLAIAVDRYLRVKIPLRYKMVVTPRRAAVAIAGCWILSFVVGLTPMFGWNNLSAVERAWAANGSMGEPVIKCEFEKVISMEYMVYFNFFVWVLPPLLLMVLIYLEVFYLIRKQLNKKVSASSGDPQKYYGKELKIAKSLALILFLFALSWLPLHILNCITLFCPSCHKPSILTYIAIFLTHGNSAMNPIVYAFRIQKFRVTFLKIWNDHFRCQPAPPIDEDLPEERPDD
Description: as §2, §3, §4

adenosine A2b receptor = target: T3, adenosine A2b receptor (Homo sapiens, UniProt P29275); experiment: Adenosine agonism indirectly by gene expression (luciferase, cAMP-dependent promoter) in transfected CHO cells, A2b; type: cell-based; settings: read-out: Stimulation of adenosine A2b receptor (% of the maximum stimulation achieved by NECA)
T3 construct: expressed in transfected cells; host or cells: CHO (Chinese Hamster Ovary)
T3 sequence (P29275 1-332): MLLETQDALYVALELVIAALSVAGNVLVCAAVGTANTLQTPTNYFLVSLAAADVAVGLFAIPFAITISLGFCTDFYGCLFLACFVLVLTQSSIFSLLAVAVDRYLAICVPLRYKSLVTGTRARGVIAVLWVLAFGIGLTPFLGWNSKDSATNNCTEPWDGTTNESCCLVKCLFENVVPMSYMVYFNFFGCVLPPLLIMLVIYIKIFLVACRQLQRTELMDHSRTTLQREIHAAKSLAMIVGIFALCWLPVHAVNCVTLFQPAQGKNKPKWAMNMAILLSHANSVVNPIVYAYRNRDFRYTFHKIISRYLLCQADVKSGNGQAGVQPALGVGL
Description: as §2, §3, §4

[3] = Pharmacokinetic investigation, oral bioavailability in dogs; type: in vivo; settings: plasma, Dog, read-out: Bioavailability following oral administration
Method: as §1

[4] = at a concentration of 10^−6 g/ml
[5] = at a concentration of 10^−7 g/ml

bioavailability ([1]; at 1 mg/kg p.o.) [%]	bioavailability ([3]; at 3 mg/kg p.o.) [%]	Compound	bioavailability [2] [%]	Reduction of the heart rate in percent (heart; [4]) [%]	Reduction of the heart rate in percent (heart; [5]) [%]	Emax (adenosine A2a receptor; 0.3 nmol) [%]	Emax (adenosine A2a receptor; 1 nmol) [%]	Emax (adenosine A2a receptor; 10 nmol) [%]	Stimulation of adenosine A1 receptor (luciferase activity in % of forskolin prestimulation) (adenosine A1 receptor; 0.3 nmol) [%]	Stimulation of adenosine A1 receptor (luciferase activity in % of forskolin prestimulation) (adenosine A1 receptor; 1 nmol) [%]	Stimulation of adenosine A1 receptor (luciferase activity in % of forskolin prestimulation) (adenosine A1 receptor; 10 nmol) [%]	Emax (adenosine A2b receptor; 0.3 nmol) [%]	Emax (adenosine A2b receptor; 1 nmol) [%]	Emax (adenosine A2b receptor; 10 nmol) [%]	bioavailability ([1]; at 3 mg/kg p.o.) [%]	bioavailability ([3]; at 1 mg/kg p.o.) [%]
31.5	32.6	COCCOc1ccc(-c2c(C#N)c(N)nc(SCc3cccnc3)c2C#N)cc1 [Example 1, 2-Amino-4-[4-(2-methoxyethoxy)phenyl]-6-[(3-pyridinylmethyl)sulphanyl]pyridine-3,5-dicarbonitrile]	5	17.5	15.0	-1	2	-2	56	11	4	2	6	8	–	–
–	–	N#Cc1c(N)nc(SCc2csc(-c3ccc(Cl)cc3)n2)c(C#N)c1-c1ccc(OCCO)cc1 [Example 6, 2-Amino-6-({[2-(4-chlorophenyl)-1,3-thiazol-4-yl]methyl}sulphanyl)-4-[4-(2-hydroxyethoxy)phenyl]pyridine-3,5-dicarbonitrile]	42.3	20.0	15.5	0	4	2	45	25	7	0	3	29	41.3	28.5
